Measurements from article PMC7311426, “An amphipathic peptide with antibiotic activity against multidrug-resistant Gram-negative bacteria” (Nature Communications, 2020).
In brackets after ≈: the same amount, converted by molar mass. Like-named read-outs stand apart in the source and are kept apart here. Residues, ends and D or L forms follow the SMILES beside them.

How the values were obtained:
Test in all cases: microbe, parasite or virus in culture
A. baumannii = A. baumannii Greece CI, XDR; PmxR; MHB; mode of 6 replicates
Method in brief: (§1)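 MICs were scored by eye after 18-20 h static incubation at 37 °C, with bacteria at 5 × 10^5 CFU mL^−1 in MHB. Peptides were serially diluted 2-fold over 12 points, top 128 or 64 μg mL^−1. CAMHB (CLSI) and 1% agarose-MHB variants were also run, at least six replicates.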

E. coli = test system: E. coli
Method in brief: as §1

K. pneumoniae = details: for MIC, broth microdilution: plate 1, colony 1; for MIC K. pneumoniae ATCC BAA-2146: NDM-1 strain, NBS Corning 3641 plate
Method in brief: as §1

P. aeruginosa = test system: P. aeruginosa
Method in brief: as §1

`CC(C)[C@@H]1NC(=O)[C@H](Cc2ccc(O)cc2)NC(=O)[C@H](Cc2c[nH]c3ccccc23)NC(=O)[C@@H](NC(=O)[C@H](Cc2ccccc2)NC(=O)CN)CSSC[C@@H](C(=O)N[C@@H](CC(N)=O)C(=O)O)NC(=O)[C@H](CCCNC(=N)N)NC(=O)[C@H](CCCNC(=N)N)NC(=O)[C@H](Cc2ccc(O)cc2)NC(=O)[C@@H]2CSSC[C@H](NC1=O)C(=O)N[C@@H](C)C(=O)N[C@@H](CCCNC(=N)N)C(=O)N[C@@H](CCCNC(=N)N)C(=O)N[C@@H](CC(N)=O)C(=O)NCC(=O)N[C@@H](C)C(=O)N[C@@H](CCCNC(=N)N)C(=O)N[C@@H](C(C)C)C(=O)N2` [AA139] (HELM PEPTIDE1{G.F.C.W.Y.V.C.A.R.R.N.G.A.R.V.C.Y.R.R.C.N}$PEPTIDE1,PEPTIDE1,3:R3-20:R3|PEPTIDE1,PEPTIDE1,7:R3-16:R3$$$V2.0) was tested, and the “BMD MIC” value (A. baumannii) was 0.5 µg/mL, the “MIC against ESBL producing E. coli DSA 443” value (E. coli) was 0.5 µg/mL (≈ 0.196 µM) and the “MIC, broth microdilution” value (E. coli) was 0.06 µg/mL (≈ 0.0235 µM). The “MIC, broth microdilution” value (E. coli; E. coli AUD172 spontaneous mutant, AA139 selection 4X, plate 2, colony 2, drug-free passage 1) was 0.12 µg/mL (≈ 0.0471 µM), the “MIC, broth microdilution” value (E. coli; E. coli AUD172 spontaneous mutant, AA139 selection 4X, plate 2, colony 2, drug-free passage 5) was 0.25 µg/mL (≈ 0.098 µM) and the “BMD MIC” value (E. coli; E. coli ESBL20150072, mcr-1 pos, ESBL, CAMHB, AA139) was 0.5 µg/mL. The “BMD MIC” value (K. pneumoniae) was 0.5 µg/mL, the “MIC K. pneumoniae BAA-2146 (NDM-1)” value (K. pneumoniae; BMD, MHB, 18-20 h 37 °C, mode of ≥6 independent biological replicates) was 1 µg/mL (≈ 0.392 µM) and the “MIC, broth microdilution” value (K. pneumoniae; K. pneumoniae 3010 spontaneous mutant, AA139 selection 4X, drug-free passage 1) was 2, 2 µg/mL. For the same compound, the “MIC, broth microdilution” value (K. pneumoniae; K. pneumoniae 3010 spontaneous mutant, AA139 selection 4X, drug-free passage 5) was 2, 2 µg/mL, the “MIC, broth microdilution” value (K. pneumoniae; K. pneumoniae 3010 spontaneous mutant, AA139 selection 8X, drug-free passage 1) was 2, 2 µg/mL and the “MIC, broth microdilution” value (K. pneumoniae; K. pneumoniae 3010 spontaneous mutant, AA139 selection 8X, drug-free passage 5) was 2, 2 µg/mL. The “BMD MIC” value (K. pneumoniae; K. pneumoniae ATCC 700603 (K6), MDR, OXA-2/SHV-18, CAMHB, mode of 6 replicates) was 2 µg/mL, the “BMD MIC” value (K. pneumoniae; K. pneumoniae ATCC 700603 (K6), MDR, OXA-2/SHV-18, MHB, mode of 6 replicates) was 0.5 µg/mL and the “BMD MIC” value (K. pneumoniae; K. pneumoniae BAA-2146, MDR, ESBL, NDM-1 pos, MHB, mode of 6 replicates) was 1 µg/mL. For the same compound, the “BMD MIC” value (K. pneumoniae; K. pneumoniae Greece CI 8_GR_13, XDR, KPC-2, PmxR, MHB, mode of 6 replicates) was 16 µg/mL, the “MIC, broth microdilution” value (K. pneumoniae; K. pneumoniae ST258 spontaneous mutant, AA139 selection 4X, drug-free passage 1) was 2, 2 µg/mL and the “MIC, broth microdilution” value (K. pneumoniae; K. pneumoniae ST258 spontaneous mutant, AA139 selection 4X, drug-free passage 5) was 2, 2 µg/mL. The “MIC K. pneumoniae ATCC BAA-2146” value (K. pneumoniae; CAMHB, replicate 1) was 1 µg/mL (≈ 0.392 µM), the “MIC K. pneumoniae ATCC BAA-2146” value (K. pneumoniae; CAMHB, replicate 2) was 1 µg/mL (≈ 0.392 µM) and the “MIC K. pneumoniae ATCC BAA-2146” value (K. pneumoniae; CAMHB, replicate 3) was 1 µg/mL (≈ 0.392 µM). For the same compound, the “MIC K. pneumoniae ATCC BAA-2146” value (K. pneumoniae; CAMHB, replicate 4) was 2 µg/mL (≈ 0.784 µM), the “MIC K. pneumoniae ATCC BAA-2146” value (K. pneumoniae; CAMHB, replicate 5) was 1 µg/mL (≈ 0.392 µM) and the “MIC K. pneumoniae ATCC BAA-2146” value (K. pneumoniae; CAMHB, replicate 6) was 1 µg/mL (≈ 0.392 µM). The “MIC K. pneumoniae ATCC BAA-2146” value (K. pneumoniae; CAMHB, replicate 7) was 0.5 µg/mL (≈ 0.196 µM), the “MIC K. pneumoniae ATCC BAA-2146” value (K. pneumoniae; CAMHB, replicate 8) was 0.5 µg/mL (≈ 0.196 µM) and the “MIC K. pneumoniae ATCC BAA-2146” value (K. pneumoniae; CAMHB, replicate 9) was 0.5 µg/mL (≈ 0.196 µM). For the same compound, the “MIC K. pneumoniae ATCC BAA-2146” value (K. pneumoniae; CAMHB, replicate 10) was 0.25 µg/mL (≈ 0.098 µM), the “MIC K. pneumoniae ATCC BAA-2146” value (K. pneumoniae; CAMHB, replicate 11) was 0.5 µg/mL (≈ 0.196 µM) and the “MIC K. pneumoniae ATCC BAA-2146” value (K. pneumoniae; CAMHB, replicate 12) was 0.5 µg/mL (≈ 0.196 µM). The “MIC K. pneumoniae ATCC BAA-2146” value (K. pneumoniae; CAMHB, replicate 13) was 1 µg/mL (≈ 0.392 µM), the “MIC K. pneumoniae ATCC BAA-2146” value (K. pneumoniae; CAMHB, replicate 14) was 1 µg/mL (≈ 0.392 µM) and the “MIC against P. aeruginosa (ATCC 27853)” value (P. aeruginosa) was 1.0 µg/mL (≈ 0.392 µM). The “MIC, broth microdilution” value (P. aeruginosa) was 1 µg/mL (≈ 0.392 µM), the “MIC, broth microdilution” value (P. aeruginosa; P. aeruginosa ATCC 27853 spontaneous mutant, AA139 selection 4X, plate 1, colony 1, drug-free passage 1) was 1, 1 µg/mL and the “MIC, broth microdilution” value (P. aeruginosa; P. aeruginosa ATCC 27853 spontaneous mutant, AA139 selection 4X, plate 1, colony 1, drug-free passage 5) was 1, 1 µg/mL. For the same compound, the “MIC, broth microdilution” value (P. aeruginosa; P. aeruginosa ATCC 27853 spontaneous mutant, AA139 selection 4X, plate 1, colony 2, drug-free passage 1) was 1, 1 µg/mL, the “MIC, broth microdilution” value (P. aeruginosa; P. aeruginosa ATCC 27853 spontaneous mutant, AA139 selection 4X, plate 1, colony 2, drug-free passage 5) was 1, 1 µg/mL and the “MIC, broth microdilution” value (P. aeruginosa; P. aeruginosa ATCC 27853 spontaneous mutant, AA139 selection 4X, plate 1, colony 3, drug-free passage 1) was 1, 1 µg/mL. For the same compound, the “MIC, broth microdilution” value (P. aeruginosa; P. aeruginosa ATCC 27853 spontaneous mutant, AA139 selection 4X, plate 1, colony 3, drug-free passage 5) was 1, 1 µg/mL, the “MIC, broth microdilution” value (P. aeruginosa; P. aeruginosa ATCC 27853 spontaneous mutant, AA139 selection 4X, plate 1, colony 4, drug-free passage 1) was 2 µg/mL (≈ 0.784 µM) and the “MIC, broth microdilution” value (P. aeruginosa; P. aeruginosa ATCC 27853 spontaneous mutant, AA139 selection 4X, plate 1, colony 4, drug-free passage 5) was 1 µg/mL (≈ 0.392 µM). The “MIC, broth microdilution” value (P. aeruginosa; P. aeruginosa ATCC 27853 spontaneous mutant, AA139 selection 4X, plate 1, colony 5, drug-free passage 1) was 2, 2 µg/mL, the “MIC, broth microdilution” value (P. aeruginosa; P. aeruginosa ATCC 27853 spontaneous mutant, AA139 selection 4X, plate 1, colony 5, drug-free passage 5) was 2, 2 µg/mL and the “MIC, broth microdilution” value (P. aeruginosa; P. aeruginosa ATCC 27853 spontaneous mutant, AA139 selection 4X, plate 1, colony 6, drug-free passage 1) was 1, 1 µg/mL. The “MIC, broth microdilution” value (P. aeruginosa; P. aeruginosa ATCC 27853 spontaneous mutant, AA139 selection 4X, plate 1, colony 6, drug-free passage 5) was 1, 1 µg/mL, the “MIC, broth microdilution” value (P. aeruginosa; P. aeruginosa ATCC 27853 spontaneous mutant, AA139 selection 4X, plate 2, colony 1, drug-free passage 1) was 1, 1 µg/mL and the “MIC, broth microdilution” value (P. aeruginosa; P. aeruginosa ATCC 27853 spontaneous mutant, AA139 selection 4X, plate 2, colony 1, drug-free passage 5) was 1, 1 µg/mL. For the same compound, the “MIC, broth microdilution” value (P. aeruginosa; P. aeruginosa ATCC 27853 spontaneous mutant, AA139 selection 4X, plate 2, colony 2, drug-free passage 1) was 1, 1 µg/mL, the “MIC, broth microdilution” value (P. aeruginosa; P. aeruginosa ATCC 27853 spontaneous mutant, AA139 selection 4X, plate 2, colony 2, drug-free passage 5) was 1, 1 µg/mL and the “MIC, broth microdilution” value (P. aeruginosa; P. aeruginosa ATCC 27853 spontaneous mutant, AA139 selection 4X, plate 2, colony 3, drug-free passage 1) was 1 µg/mL (≈ 0.392 µM). The “MIC, broth microdilution” value (P. aeruginosa; P. aeruginosa ATCC 27853 spontaneous mutant, AA139 selection 4X, plate 2, colony 3, drug-free passage 5) was 0.5 µg/mL (≈ 0.196 µM), the “MIC, broth microdilution” value (P. aeruginosa; P. aeruginosa ATCC 27853 spontaneous mutant, AA139 selection 4X, plate 2, colony 4, drug-free passage 1) was 1 µg/mL (≈ 0.392 µM) and the “MIC, broth microdilution” value (P. aeruginosa; P. aeruginosa ATCC 27853 spontaneous mutant, AA139 selection 4X, plate 2, colony 4, drug-free passage 5) was 0.5 µg/mL (≈ 0.196 µM).
